Experimental data reported in article PMC11602115 (Journal of Medicinal Chemistry, 2017).
Read-outs that look alike come from different tables or passages of the source.

What was measured:
[1] = Stability in rat microsome preparations; format: in vitro ADME; details: incubation at 37 °C, rat microsomes; read-out: rat MS, T1/2
Excerpt: Table 1 Screening Data for Selected Analogues ^a | column: human and rat MS, T1/2 (min) ^g

Rat PK (iv and oral) = format: in vivo; details: for AUC(0-inf) / bioavailability: Sprague-Dawley; for AUC(0-inf): after oral administration 10 mg/kg (5m 10.5); for bioavailability: po, 10 mg/kg; for unbound Cmax plasma concentration: single oral dose 30 mg/kg, based on 1% free fraction of the measured Cmax
DP1 = DP1 (Homo sapiens, UniProt Q13258); assay: Radioligand binding, DP1 ([3H]-PGD2); details: cloned human receptor; mean of two determinations
Method: (§1) Additional (non-IP) receptor binding assays were carried out by MDS Pharma (Taiwan) and CEREP (France).

CYP 2D6 = CYP 2D6 (Homo sapiens, UniProt P10635); assay: Cytochrome P450 inhibition, CYP2D6; format: in vitro ADME
CYP 2C8 = CYP 2C8 (Homo sapiens, UniProt P10632); assay: Cytochrome P450 inhibition, CYP2C8; format: in vitro ADME
CYP 2C9 = CYP 2C9 (Homo sapiens, UniProt P11712); assay: Cytochrome P450 inhibition, CYP2C9; format: in vitro ADME
CYP 2C19 = CYP 2C19 (Homo sapiens, UniProt P33261); assay: Cytochrome P450 inhibition, CYP2C19; format: in vitro ADME
hERG channel = hERG channel (Homo sapiens, UniProt Q12809); assay: hERG patch clamp assay; format: cell-based; details: read-out: IC50 hERG channel functional activity
MCT-induced PAH = assay: Rat monocrotaline (MCT) model of PAH, preventative oral dosing; format: in vivo, male Sprague-Dawley rats; details: for inhibition of the MCT-induced increase in RV/(LV + S): oral, twice daily for 21 days, preventative mode
Method: Following anesthesia by intraperitoneal injection of 30 mg/kg pentobarbital, rats were given a subcutaneous injection of either 60 mg/kg MCT (Sigma, catalog no. C2401-1G) or 0.9% saline for the sham group. […] Hemodynamic measurements were performed with animals from the 30 mg/kg group (but not the 10 mg/kg group) anesthetized with 60 mg/kg pentobarbital. Under anesthesia, each animal was intubated with a rodent ventilator (Harvard Apparatus, model 683) at 70 breaths/min of a rate and a tidal volume of 2.5 mL in supine position on a heating pad set at 37 °C. A small opening in the apex of the right ventricle was made using a 23G needle, then a Millar catheter (Millar Instruments, Inc. model SPR-320) was placed into the right ventricle through the opening in the apex, then into the pulmonary artery (PA) for the pressure measurement. A second catheter was inserted through the […] for the measurement of mean arterial pressure. After stabilization, heart rate, mean arterial pressure, and systolic RV pressure were calculated from 20 consecutive heart beats in each rat.
The ventricles and lungs were excised and weighed. The ratio of RV weight to left ventricle plus septum (LV + S) was calculated as an index of right ventricular hypertrophy.
As the collection and preservation of the tissues are very resource intensive, 5 animals were selected from each group for measurement of vessel thickness; this was sufficient to obtain clear statistical differences between groups. Paraffin sections of 4 μm thickness were obtained from the lower region of the right lung and stained with hematoxylin/eosin. Analysis of the medial wall thickness of the pulmonary arterioles was performed. In brief, the external diameter and medial wall thickness were measured in 20 muscular arteries (25–100 μm external diameters) per lung section. For each artery, the medial wall thickness was expressed as follows: % wall thickness = [(external diameter – internal diameter)/external diameter] × 100. Each vessel was measured twice, perpendicularly along the long axis and short axis, and averages of both measurements were used.

Plasma protein binding = format: in vitro ADME; details: across all species
EP1 = molecular target: T1, EP1 (Homo sapiens, UniProt P34995); assay: cAMP HTRF agonist assay, EP1; format: cell-based
T1 sequence (P34995 1-402): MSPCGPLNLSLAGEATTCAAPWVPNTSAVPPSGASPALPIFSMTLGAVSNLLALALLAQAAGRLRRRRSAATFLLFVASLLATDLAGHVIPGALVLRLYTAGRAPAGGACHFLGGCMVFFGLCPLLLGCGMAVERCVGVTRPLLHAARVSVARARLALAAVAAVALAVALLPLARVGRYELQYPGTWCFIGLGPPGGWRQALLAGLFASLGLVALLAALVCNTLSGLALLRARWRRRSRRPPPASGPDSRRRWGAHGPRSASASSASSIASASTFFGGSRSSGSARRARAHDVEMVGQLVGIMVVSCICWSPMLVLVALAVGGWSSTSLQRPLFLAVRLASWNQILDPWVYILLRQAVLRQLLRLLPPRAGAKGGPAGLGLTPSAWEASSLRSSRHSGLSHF
Excerpt: Table Sup2: Data with some comparator compounds in functional assays.
Compound DP1 EP1 EP2 EP3v6 EP4
EC50, µµµµM (% I.A) EC50, µµµµM (% I.A) EC50, µµµµM (% I.A) EC50, µµµµM (% I.A) EC50, µµµµM (% I.A)
n = 3 n = 2 n = 8 n = 6 n = 6 […]

95 GPCR profile = assay: Wider binding screen (95 GPCR profile, MDS Pharma); details: 95 GPCR profile (MDS Pharma Inc.)
Excerpt: [15] 95 GPCR profile (MDS Pharma Inc.).

EP2 = EP2 (Homo sapiens, UniProt P43116); assay: Radioligand binding, EP2 ([3H]-PGE2); set-up: purchased MDS Pharma (Taiwan) and CEREP (France), contract assays; details: cloned human receptor; mean of two determinations
Method: as §1

[2] = Metabolite profile of 5c in the rat; format: in vivo; details: in vivo following dosing of 5g
Excerpt: A taurine-conjugated metabolite was subsequently identified in bile (M1, Figure 4), which was also observed in circulating plasma, although at much lower concentrations (∼5%) compared to parent. Further, two oxidized products, one of which was also a taurine-conjugate, were identified (M2 and M3) in plasma. […] It is known that taurine can be conjugated to bile acids and these conjugates may be hydrolyzed in the gut which allows for bile acid reabsorbtion.[19]

EP4 = EP4 (Homo sapiens, UniProt P35408); assay: Radioligand binding, EP4 ([3H]-PGE2); set-up: purchased MDS Pharma (Taiwan) and CEREP (France), contract assays; details: cloned human receptor; mean of two determinations
Method: as §1

[3] = terminal half-life after iv 2 mg/kg (5m 2.1)
[4] = total clearance, iv 2 mg/kg (5m 2.1)
[5] = read-out: plasma protein binding

Sequence of CYP 2C8 (P10632 whole entry): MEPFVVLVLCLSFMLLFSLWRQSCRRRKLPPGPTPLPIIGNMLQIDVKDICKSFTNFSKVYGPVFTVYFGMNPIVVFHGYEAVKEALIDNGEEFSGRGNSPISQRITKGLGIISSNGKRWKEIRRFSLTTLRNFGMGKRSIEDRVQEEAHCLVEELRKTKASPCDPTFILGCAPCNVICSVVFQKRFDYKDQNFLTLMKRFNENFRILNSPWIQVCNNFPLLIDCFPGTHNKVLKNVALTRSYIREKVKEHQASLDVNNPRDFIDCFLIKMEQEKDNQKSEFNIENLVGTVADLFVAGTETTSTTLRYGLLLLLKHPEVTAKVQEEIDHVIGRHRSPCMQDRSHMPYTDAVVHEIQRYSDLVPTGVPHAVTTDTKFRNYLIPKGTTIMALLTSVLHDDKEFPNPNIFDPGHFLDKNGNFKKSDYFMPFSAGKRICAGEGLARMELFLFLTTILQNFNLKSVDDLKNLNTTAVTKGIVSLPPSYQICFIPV
Sequence of EP2 (P43116 whole entry): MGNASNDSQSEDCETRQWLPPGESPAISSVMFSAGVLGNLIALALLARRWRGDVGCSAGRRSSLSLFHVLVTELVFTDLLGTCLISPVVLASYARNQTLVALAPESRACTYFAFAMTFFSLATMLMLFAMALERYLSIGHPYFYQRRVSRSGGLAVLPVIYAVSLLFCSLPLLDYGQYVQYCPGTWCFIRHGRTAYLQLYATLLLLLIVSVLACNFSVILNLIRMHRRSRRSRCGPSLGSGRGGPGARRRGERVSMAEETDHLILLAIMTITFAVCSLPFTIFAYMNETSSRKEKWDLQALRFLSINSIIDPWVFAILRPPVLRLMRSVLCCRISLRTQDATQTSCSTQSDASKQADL
Sequence of CYP 2C9 (P11712 whole entry): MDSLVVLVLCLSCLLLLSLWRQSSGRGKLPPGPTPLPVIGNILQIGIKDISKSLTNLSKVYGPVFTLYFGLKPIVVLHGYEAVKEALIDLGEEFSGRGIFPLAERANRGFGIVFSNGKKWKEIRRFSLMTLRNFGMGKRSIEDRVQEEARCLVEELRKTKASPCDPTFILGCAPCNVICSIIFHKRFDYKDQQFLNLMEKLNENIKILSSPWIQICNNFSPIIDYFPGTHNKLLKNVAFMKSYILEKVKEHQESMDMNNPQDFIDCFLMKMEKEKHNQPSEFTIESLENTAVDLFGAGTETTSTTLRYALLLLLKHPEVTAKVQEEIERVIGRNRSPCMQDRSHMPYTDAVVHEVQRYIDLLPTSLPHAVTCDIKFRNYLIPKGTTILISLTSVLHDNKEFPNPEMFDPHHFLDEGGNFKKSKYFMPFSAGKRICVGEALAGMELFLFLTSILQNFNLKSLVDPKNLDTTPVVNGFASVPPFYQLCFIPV
Sequence of CYP 2C19 (P33261 whole entry): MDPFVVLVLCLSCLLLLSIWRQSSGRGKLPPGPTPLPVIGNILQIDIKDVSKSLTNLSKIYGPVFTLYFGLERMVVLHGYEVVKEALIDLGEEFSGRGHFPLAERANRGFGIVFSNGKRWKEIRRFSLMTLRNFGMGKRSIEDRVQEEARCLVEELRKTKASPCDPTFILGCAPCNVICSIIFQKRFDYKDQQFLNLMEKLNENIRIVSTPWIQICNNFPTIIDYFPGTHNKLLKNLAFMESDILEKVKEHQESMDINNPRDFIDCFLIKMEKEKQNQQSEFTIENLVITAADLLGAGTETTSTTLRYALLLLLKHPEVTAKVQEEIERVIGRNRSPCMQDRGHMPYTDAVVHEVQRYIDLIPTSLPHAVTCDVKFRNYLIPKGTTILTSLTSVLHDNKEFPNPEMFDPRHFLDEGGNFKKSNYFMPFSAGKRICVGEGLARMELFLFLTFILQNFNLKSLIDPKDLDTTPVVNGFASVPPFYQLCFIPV
Sequence of CYP 2D6 (P10635 whole entry): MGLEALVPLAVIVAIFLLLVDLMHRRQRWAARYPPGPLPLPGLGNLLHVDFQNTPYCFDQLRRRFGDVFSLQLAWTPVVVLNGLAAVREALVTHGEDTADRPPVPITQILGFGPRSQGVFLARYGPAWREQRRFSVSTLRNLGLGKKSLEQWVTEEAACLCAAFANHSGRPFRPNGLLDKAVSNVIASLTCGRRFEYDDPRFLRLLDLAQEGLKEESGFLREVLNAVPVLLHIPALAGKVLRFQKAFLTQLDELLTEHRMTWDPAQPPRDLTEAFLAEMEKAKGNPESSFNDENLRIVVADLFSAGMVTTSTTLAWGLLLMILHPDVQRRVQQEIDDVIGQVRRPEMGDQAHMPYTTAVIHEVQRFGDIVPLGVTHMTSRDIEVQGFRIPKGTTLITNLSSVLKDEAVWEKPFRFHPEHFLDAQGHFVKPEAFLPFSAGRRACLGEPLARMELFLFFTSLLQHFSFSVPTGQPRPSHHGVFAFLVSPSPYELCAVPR
Sequence of DP1 (Q13258 whole entry): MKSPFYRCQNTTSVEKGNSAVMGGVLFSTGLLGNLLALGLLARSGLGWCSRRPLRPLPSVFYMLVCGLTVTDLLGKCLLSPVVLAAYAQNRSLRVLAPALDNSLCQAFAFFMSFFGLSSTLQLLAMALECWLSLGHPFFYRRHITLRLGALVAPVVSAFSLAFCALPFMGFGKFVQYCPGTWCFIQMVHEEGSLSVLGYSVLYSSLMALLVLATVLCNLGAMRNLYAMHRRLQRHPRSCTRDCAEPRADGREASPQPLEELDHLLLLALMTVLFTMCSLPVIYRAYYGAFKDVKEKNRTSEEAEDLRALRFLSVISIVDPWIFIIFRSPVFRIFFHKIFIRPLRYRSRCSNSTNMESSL
Sequence of hERG channel (Q12809 whole entry): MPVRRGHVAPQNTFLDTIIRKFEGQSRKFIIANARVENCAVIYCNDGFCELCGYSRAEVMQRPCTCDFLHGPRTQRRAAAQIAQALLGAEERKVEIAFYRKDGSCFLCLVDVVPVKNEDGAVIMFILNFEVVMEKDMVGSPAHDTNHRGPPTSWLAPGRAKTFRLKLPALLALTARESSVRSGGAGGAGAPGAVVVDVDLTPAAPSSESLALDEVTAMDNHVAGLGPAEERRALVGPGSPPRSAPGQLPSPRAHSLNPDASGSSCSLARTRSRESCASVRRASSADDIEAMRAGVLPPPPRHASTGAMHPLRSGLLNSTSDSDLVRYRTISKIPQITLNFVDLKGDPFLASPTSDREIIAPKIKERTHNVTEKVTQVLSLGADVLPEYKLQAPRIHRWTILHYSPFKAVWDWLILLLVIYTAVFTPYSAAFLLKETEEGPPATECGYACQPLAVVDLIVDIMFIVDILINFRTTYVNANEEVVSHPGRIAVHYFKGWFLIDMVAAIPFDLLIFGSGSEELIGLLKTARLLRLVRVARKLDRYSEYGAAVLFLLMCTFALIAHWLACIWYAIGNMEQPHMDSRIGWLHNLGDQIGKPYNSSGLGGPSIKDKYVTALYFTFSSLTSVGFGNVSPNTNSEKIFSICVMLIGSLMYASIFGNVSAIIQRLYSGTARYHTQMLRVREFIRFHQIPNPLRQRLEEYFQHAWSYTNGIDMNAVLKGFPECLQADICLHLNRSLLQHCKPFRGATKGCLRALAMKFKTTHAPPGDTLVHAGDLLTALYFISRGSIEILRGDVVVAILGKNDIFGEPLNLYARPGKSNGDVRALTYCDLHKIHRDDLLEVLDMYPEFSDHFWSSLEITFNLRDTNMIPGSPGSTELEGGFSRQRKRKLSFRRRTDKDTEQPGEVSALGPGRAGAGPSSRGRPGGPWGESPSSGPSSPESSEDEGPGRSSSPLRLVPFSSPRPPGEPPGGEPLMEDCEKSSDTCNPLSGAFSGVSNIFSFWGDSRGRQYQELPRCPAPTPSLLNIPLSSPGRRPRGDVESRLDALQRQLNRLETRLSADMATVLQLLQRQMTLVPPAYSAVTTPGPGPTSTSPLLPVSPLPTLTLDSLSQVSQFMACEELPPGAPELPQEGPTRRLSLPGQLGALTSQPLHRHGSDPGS
Sequence of EP4 (P35408 whole entry): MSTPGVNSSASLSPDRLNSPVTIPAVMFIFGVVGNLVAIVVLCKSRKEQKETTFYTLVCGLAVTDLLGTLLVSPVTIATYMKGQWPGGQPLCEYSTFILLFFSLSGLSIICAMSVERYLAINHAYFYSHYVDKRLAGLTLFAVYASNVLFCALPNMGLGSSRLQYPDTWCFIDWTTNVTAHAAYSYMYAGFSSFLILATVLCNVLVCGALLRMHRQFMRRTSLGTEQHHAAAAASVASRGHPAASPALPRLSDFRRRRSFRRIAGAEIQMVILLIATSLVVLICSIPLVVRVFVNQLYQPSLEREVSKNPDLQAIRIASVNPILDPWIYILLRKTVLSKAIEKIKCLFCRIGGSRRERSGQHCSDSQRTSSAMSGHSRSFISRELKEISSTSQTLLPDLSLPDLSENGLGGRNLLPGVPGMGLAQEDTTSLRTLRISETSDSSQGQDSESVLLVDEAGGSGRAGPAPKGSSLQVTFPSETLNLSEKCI

Structure (SMILES)	half-life [1]	AUC(0-inf) (Rat PK (iv and oral); plasma)	bioavailability (Rat PK (iv and oral); plasma)	Cmax (Rat PK (iv and oral); po 10 mg/kg (5m 10.5))	Tmax (Rat PK (iv and oral); po 10 mg/kg (5m 10.5))	unbound Cmax plasma concentration (Rat PK (iv and oral))	T1/2 (Rat PK (iv and oral); [3])	Clobs (Rat PK (iv and oral); [4])	Ki (DP1)	IC50 (CYP 2D6)	IC50 (CYP 2C8)	IC50 (CYP 2C9)	IC50 (CYP 2C19)	IC50 (hERG channel)	inhibition of the MCT-induced increase in RV/(LV + S) (MCT-induced PAH)	fraction unbound (Plasma protein binding; read-out: free fraction)	fraction unbound (Plasma protein binding; [5])	EC50 (EP1)	off-target liabilities in a wider screen (95 GPCR profile)	Ki (EP2)	also measured
O=C(O)COC[C@H]1CC[C@H](COC(=O)N(c2ccccc2)c2ccc(Cl)cc2)CC1 [5c, Sodium 2-(((1r,4r)-4-(((4-Chlorophenyl)(phenyl)carbamoyloxy)methyl)cyclohexyl)methoxy)acetate]	> 1 h	14600 ng·h/mL	57%	3700 ng/mL	1.5 h	300 nM	6.7 h	0.43 L h^–1 kg^–1	2.6 µM	> 50 µM	> 50 µM	> 50 µM	> 50 µM	> 30 µM	dose-dependent inhibition	0.01	~0.01	> 10 µM	no additional off-target liabilities were observed	0.61 µM	half-life (Rat PK (iv and oral); CD-1 (mouse), Sprague-Dawley (rat), plasma, oral, rodents, read-out: elimination half-life in rodents): 5 to 8 h; AUC0–inf (Rat PK (iv and oral); iv 2 mg/kg (Table 4)): 5090 ± 1620 ng·h/mL; Clobs (Rat PK (iv and oral); iv 2 mg/kg (Table 4)): 0.427 ± 0.163 L h^–1 kg^–1; T1/2 (Rat PK (iv and oral); iv 2 mg/kg (Table 4)): 6.72 ± 0.98 h; unbound Cmax (Rat PK (iv and oral); oral 10 mg/kg, calculated from the PK experiment): around 100 nM; Cmax (Rat PK (iv and oral); po 10.0 mg/kg (Table 4)): 3700 ± 1340 ng/mL; F (Rat PK (iv and oral); po 10.0 mg/kg (Table 4)): 57.4%; T1/2 (Rat PK (iv and oral); po 10.0 mg/kg (Table 4)): 5.45 ± 1.52 h; effect on hypertrophy (RV/(LV + S)) (MCT-induced PAH; 10 mg/kg oral twice daily): did not show a statistically significant effect; pulmonary vessel wall thickness (MCT-induced PAH; 30 mg/kg oral twice daily, 5 animals): significantly reduce; MCT-induced increase in pulmonary arterial pressure (mPAP) (MCT-induced PAH; 30 mg/kg oral twice daily, subset of the test group (5 animals)): significantly reduce
O=C(O)COC[C@H]1CC[C@H](COC(=O)N(c2ccccc2)c2cccc(F)c2)CC1 [5g, 2-(((1r,4r)-4-(((3-Fluorophenyl)(phenyl)carbamoyloxy)methyl)cyclohexyl)methoxy)acetic Acid]	> 1 h	7900 ng·h/mL	39%	3400 ng/mL	0.3 h	300 nM	3.4 h	1.2 L h^–1 kg^–1	1.85 µM	> 50 µM	> 50 µM	> 50 µM	> 50 µM	> 30 µM	dose-dependent inhibition	0.01	~0.01		no additional off-target liabilities were observed	0.57 µM	taurine conjugate metabolite in vivo [2]: no analogous conjugate was observed; Ki (EP4): 1.2 µM
CC#CCC(C)[C@H](O)/C=C/[C@@H]1[C@H]2C/C(=C/CCCC(=O)O)C[C@H]2C[C@H]1O (stereo partly drawn) [iloprost]																		0.047 µM			EP1 % I.A (EP1): 48%
